In the assay the target is Glycogen synthase kinase-3 beta (Homo sapiens) (UniProt P49841). Put plainly: NPC library primary assay, GSK-3β enzyme inhibitors, biochemical, Homo sapiens, LANCE Ultra TR-FRET detection (AID 1117355). Conditions: LANCE Ultra TR-FRET kinase activity; at 20 µM (top of the series).

The source made the active and inactive calls. The rule behind the calls is not given here.

We go through two compounds from PubChem BioAssay AID1117355 (Cheminformatics & Chemogenomics Research Group (CCRG), …, 2015).

Sequence of Glycogen synthase kinase-3 beta (Homo sapiens) (P49841 whole entry, looked up): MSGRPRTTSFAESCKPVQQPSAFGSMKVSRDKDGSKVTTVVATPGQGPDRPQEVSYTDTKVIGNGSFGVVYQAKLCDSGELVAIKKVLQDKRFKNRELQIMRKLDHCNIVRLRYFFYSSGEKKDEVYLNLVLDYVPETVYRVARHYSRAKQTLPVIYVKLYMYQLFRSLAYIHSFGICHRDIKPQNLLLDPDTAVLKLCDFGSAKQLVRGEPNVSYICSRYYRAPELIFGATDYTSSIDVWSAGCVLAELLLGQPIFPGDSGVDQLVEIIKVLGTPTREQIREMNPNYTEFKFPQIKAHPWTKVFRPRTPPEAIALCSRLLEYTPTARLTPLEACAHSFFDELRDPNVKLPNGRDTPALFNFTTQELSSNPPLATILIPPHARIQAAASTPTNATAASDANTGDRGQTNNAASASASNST

For the compound `CC(C)C[C@H](NC(=O)[C@H](CCc1ccccc1)NC(=O)CN1CCOCC1)C(=O)N[C@@H](Cc1ccccc1)C(=O)N[C@@H](CC(C)C)C(=O)[C@@]1(C)CO1`, the inhibition was 20.4% (inactive).

For the compound `Cc1cc(C2CCCCC2)n(O)c(=O)c1`, the inhibition was 0.84% (inactive).
